Values quoted from earlier work as cited in patent US20110039841A1, “Novel compounds, their preparation and use” (Novo Nordisk A/S, priority 2004, published 2011).

Key:
PPARδ = biological target: T1, PPARδ (Mus musculus, UniProt P35396); details: high fat diet induced insulin resistant mice and diabetic ob/ob; PNAS 2003, 100, 15924-15929
T1 construct: pharmacological treatment of both high fat diet induced insulin resistant mice and diabetic ob/ob with the potent PPARδ agonist GW501516; host or cells: mice (high fat diet induced insulin resistant; ob/ob), in vivo
T1 sequence (P35396 1-440): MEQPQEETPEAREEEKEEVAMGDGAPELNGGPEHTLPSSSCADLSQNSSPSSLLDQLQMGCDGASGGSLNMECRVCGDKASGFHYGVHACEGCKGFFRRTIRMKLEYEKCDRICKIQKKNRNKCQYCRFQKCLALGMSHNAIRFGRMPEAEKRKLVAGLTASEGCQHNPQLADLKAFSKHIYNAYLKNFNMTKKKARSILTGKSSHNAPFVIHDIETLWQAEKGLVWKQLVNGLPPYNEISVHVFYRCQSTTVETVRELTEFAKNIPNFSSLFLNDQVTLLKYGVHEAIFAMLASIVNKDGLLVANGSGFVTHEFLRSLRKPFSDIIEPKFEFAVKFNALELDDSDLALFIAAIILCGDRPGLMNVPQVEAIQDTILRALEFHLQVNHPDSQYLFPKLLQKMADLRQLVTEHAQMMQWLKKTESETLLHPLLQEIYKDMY

C2C12 muscle cells = details: in vitro, BioChem. Biophys. Acta 2003, 1633, 43-50, Mol. Endocrin. 2003, 17, 2477-2493

Cc1cc(SCc2sc(-c3ccc(C(F)(F)F)cc3)nc2C)ccc1OCC(=O)O [GW501516]
plasma glucose, insulin and insulin sensitivity (PPARδ): lowering of plasma glucose and insulin and improved insulin sensitivity | regulation of genes of lipid metabolism and energy expenditure (C2C12 muscle cells): regulation of genes involved with TG hydrolysis and FFA oxidation
